Assay results reported in publication PMC9254247, “Dual-sensitive antibacterial peptide nanoparticles prevent dental caries” (Theranostics, 2022).
pIC50: −log10 of the molar value. In brackets after ≈: the same amount, converted by molar mass. Read-outs that look alike come from different tables or passages of the source.

What was measured:
[1] = test system: human gingival fibroblast (HGF-1); assay: Cytotoxicity, CCK-8 assay; assay type: cell-based; details: HGF1
Source text: Figure S12. H&E staining of gingival, palatal and gastric tissues(Scale bar: 100
Supplementary Fig.13. The toxicity of pHly -1 NPs to human gingival fibroblast
(HGF-1) was assessment by CCK-8 assay. DMEM medium(10 % FBS) was used
for cell culture and DMEM m edium was used for drug preparation in toxicity tests.
The All of the data are represented as average±SD. Each experiment consists of 3 […]

[2] = test system: clinically isolated S.mutans strains; assay: MIC against clinically isolated S. mutans strains; assay type: cell-based; details: Streptococcus mutans
Source text: Peptide and different pH of culture medium prepared. The pH of BHI medium […]
was adjusted by HCl and NaOH. […]
Isolation and culture of clinical S.mutans strains. Ethical approval of the study and the written consent/permission forms were obtained from Institutional Review Board (IRB) at Hunan Normal University prior to the study. For each child, written permission form was reviewed and signed by their legal guardians. Plaque -biofilm samples were collected from patients, including 16 Middle-aged and young patients and 4 children (age between 48 and 72 months) diagnosed with severe early childhood caries (S-ECC) in Changsha Stomatological Hospital. After being collected using a sterilized periodontal scaler, pooled plaque samples were transferred into 1 mL thiolglycollate solution, covered with 0.5 mL sterile paraffin wax and immediately transported to the laboratory for isolation. In order to sufficient disperse the aggregates, samples should be gently vortexed and sonicated before isolation. A series of diluted dispersed samples were plated on TYCSB at 37 °C under anaerobic conditions. Then, the suspicious clones were selected and plated on the mitis salivarius agar (MSA) plus bacitracin at 37 °C under anaerobic conditions for further isolation. The isolated S.mutans were most of identified by mass spectrometry and all identified by microbiochemical reaction again. All isolated S.mutans were stored with glycerol for subsequent experiments.
Minimal inhibition concentration (MIC) determination . S.mutans UA159 (ATCC 700610) and 20 clinical S.mutans strains were used. S.mutans UA159 was purchased from Shanghai Biofeng Biotechnology Co., LTD. These bacteria grown in brain heart infusion broth (BHI, Beijing Land Bridge, China) at 37 °C under anaerobic conditions.
Due to bacteria incubation under the condition of excessive acid for a long time will affect its vitality, therefore, pH 5.5 was choose as acidic condition for the MIC determination. Peptides and CHX were dissolved in BHI medium of different pHs (pH 5.5 and 7.0) using serial dilutions to obtain different diluted solutions. 2 µL of bacteria (1×10^7 CFU (colony forming units) in the logarithmic phase were added into each well of 96-well plates containing 200 µL different diluted solutions. Note that […]
the aggregate behavior of peptides. In order to avoid interfering with the MIC test, it is important to set up the control wells which only contain different concentrations of peptides in BHI medium of different pHs. The absorbance at 600 nm was detected with a microplate reader (Multiskan Spectrum, BioTek Inc., USA) after 48 h. The inhibition rate of drugs on bacteria was calculated based on the absorbance […]
The SYTO 9 / PI double staining and scanning electron microscopy (SEM) were also performed to evaluate the bacterial killing and bacterial membrane disruption.
For SYTO 9/PI double staining, pHly -1 NPs was added to actively growing S. mutans UA159 (10^6 CFU/m L) at the concentration of 22 μM at pH 4.5 or pH 7.0, after 1 h incubation, the bacteria treated were imaged by using LIVE/DEAD BacLight Bacterial Viability Kit (Thermo Fisher Scientific). SYTO 9 and PI were added according to the manufacturer ’s protocol and used for labeling […]
bacteria. […]
For SEM, S. mutans UA159 was treated by the same way to SYTO 9/PI double staining asay and then harvested, washed, and then fixed in 2.5 % glutaraldehyde for 3 h. After dehydration by serial concentrations of ethanol solutions (10%, 25%, 50%, 75%, 95%, and 100%) and lyophiliz ation overnight, the lyophilized samples were coated with goldand then photographed by SEM.

[H]/N=C(\N/C(=N/[H])NCCCCCCNC(=N)NC(=N)Nc1ccc(Cl)cc1)Nc1ccc(Cl)cc1 [CHX, chlorhexidine]
pIC50 [1]: 5.31
MIC ([2]; pH 5.5, pH 5.5, range over 20 clinical strains, read-out: MIC values against 20 bacterial strains): 0.5 to 2 µM (≈ 0.253 to 1.01 µg/mL)
MIC ([2]; pH 5.5, strain CS-1, pH 5.5, 5 repetitions, read-out: MIC): 1 µM (≈ 0.505 µg/mL)
MIC ([2]; pH 5.5, strain CS-2, pH 5.5, 5 repetitions, read-out: MIC): 0.5 µM (≈ 0.253 µg/mL)
MIC ([2]; pH 5.5, strain CS-3, pH 5.5, 5 repetitions, read-out: MIC): 1 µM (≈ 0.505 µg/mL)
MIC ([2]; pH 5.5, strain CS-4, pH 5.5, 5 repetitions, read-out: MIC): 1 µM (≈ 0.505 µg/mL)
MIC ([2]; pH 5.5, strain CS-5, pH 5.5, 5 repetitions, read-out: MIC): 2 µM (≈ 1.01 µg/mL)
MIC ([2]; pH 5.5, strain CS-6, pH 5.5, 5 repetitions, read-out: MIC): 1 µM (≈ 0.505 µg/mL)
MIC ([2]; pH 5.5, strain CS-7, pH 5.5, 5 repetitions, read-out: MIC): 1 µM (≈ 0.505 µg/mL)
MIC ([2]; pH 5.5, strain CS-8, pH 5.5, 5 repetitions, read-out: MIC): 2 µM (≈ 1.01 µg/mL)
MIC ([2]; pH 5.5, strain CS-9, pH 5.5, 5 repetitions, read-out: MIC): 2 µM (≈ 1.01 µg/mL)
MIC ([2]; pH 5.5, strain CS-10, pH 5.5, 5 repetitions, read-out: MIC): 1 µM (≈ 0.505 µg/mL)
MIC ([2]; pH 5.5, strain CS-11, pH 5.5, 5 repetitions, read-out: MIC): 1 µM (≈ 0.505 µg/mL)
MIC ([2]; pH 5.5, strain CS-12, pH 5.5, 5 repetitions, read-out: MIC): 0.5 µM (≈ 0.253 µg/mL)
MIC ([2]; pH 5.5, strain CS-13, pH 5.5, 5 repetitions, read-out: MIC): 1 µM (≈ 0.505 µg/mL)
MIC ([2]; pH 5.5, strain CS-14, pH 5.5, 5 repetitions, read-out: MIC): 1 µM (≈ 0.505 µg/mL)
MIC ([2]; pH 5.5, strain CS-15, pH 5.5, 5 repetitions, read-out: MIC): 2 µM (≈ 1.01 µg/mL)
MIC ([2]; pH 5.5, strain CS-16, pH 5.5, 5 repetitions, read-out: MIC): 1 µM (≈ 0.505 µg/mL)
MIC ([2]; pH 5.5, strain CS-17 (S-ECC child), pH 5.5, 5 repetitions, read-out: MIC): 1 µM (≈ 0.505 µg/mL)
MIC ([2]; pH 5.5, strain CS-18 (S-ECC child), pH 5.5, 5 repetitions, read-out: MIC): 2 µM (≈ 1.01 µg/mL)
MIC ([2]; pH 5.5, strain CS-19 (S-ECC child), pH 5.5, 5 repetitions, read-out: MIC): 2 µM (≈ 1.01 µg/mL)
MIC ([2]; pH 5.5, strain CS-20 (S-ECC child), pH 5.5, 5 repetitions, read-out: MIC): 2 µM (≈ 1.01 µg/mL)
